The source of these data is article PMC11547015 (International Journal of Molecular Sciences, 2024).

For orientation: EC50 means the concentration giving half of the maximal effect. As usually defined, the IC50 is the concentration that gives 50% inhibition.

Several values for one entry are separate records, joined by “and”; a condition that tells them apart may be missing. Identical values can stand only once. Entries after “also recorded” stand apart in the source; their conditions may differ. Like-named read-outs stand apart in the source and are kept apart here.

This test has as its target T1, human D2 receptor (Homo sapiens, UniProt P14416).
T1 construct: host or cells: CHO-K1
In words: Dopamine assay: functional cAMP read-out (HitHunter cAMP XS+, Gi/o agonist format). The settings on record: for EC50: CHO-K1 cells overexpressing the human D2 receptor, cAMP read-out, 25 µM forskolin, n = 2 independent experiments; for dopaminergic activity (in words): isolated compounds, D2 receptor activity assay; for change in activity on the D2 receptor relative to 7: compared with 3-epi-maslinic acid (7). Format: cell-based. The method, then:
Dopaminergic activity was determined with a functional assay in CHO-K1 cells overexpressing the human D2 receptor, using a cAMP read-out (Eurofins DiscoverX Corporation, Fremont, CA, USA). The cells (5000 cells/cm^2) were seeded in a total volume of 20 μL onto white 384-well microplates and incubated at 37 °C for 18 h prior to testing. cAMP modulation was determined using the DiscoverX HitHunter cAMP XS+ assay. Since the D2 receptor couples mainly to Gi/o (inhibitory towards cAMP), the assay was run in Gi/o agonist format. In brief, the cells were incubated with the samples in the presence of 25 µM forskolin to induce a response. Medium was aspirated from cells and replaced with 10 µL HBSS/10 mM Hepes (assay buffer). Intermediate dilution of sample stocks was performed in the assay buffer to generate a concentration 4-fold higher (4×) than the final in-well concentration. A total of 5 µL of 4× sample was added to the cells, followed by 5 µL 4× EC80 forskolin in the assay buffer and incubated at 37 °C for 30 min. The final DMSO concentration (vehicle) was 1%. After appropriate compound incubation, the assay signal was generated through incubation with 5 µL of cAMP XS + Ab reagent followed by 20 μL cAMP XS + ED/CL lysis cocktail for one hour followed by incubation with 20 μL cAMP XS + EA reagent for three hours at room temperature. The microplates were read following signal generation with an Envision^TM instrument (PerkinElmer, Waltham, MA, USA) for chemiluminescent signal detection.
For Gi agonist mode assays, percentage activity was calculated using the following formula: % Activity = 100% × (1 − (mean RLU of test sample − mean RLU of MAX control)/(mean RLU of vehicle control − mean RLU of MAX control)). Concentration–response curves were generated using EC50 using Graphpad Prism version 9.0 (Graphpad Software, Boston, MA, USA), and curve fitting was performed using non-linear regression analysis applying the following variable slope equation: Y = Bottom + (Top − Bottom)/(1 + 10^((LogEC50 − X) × HillSlope)).

The mark [1] stands for this setting: read-out: EC50 at the D2 receptor.

T1 sequence (P14416 whole entry): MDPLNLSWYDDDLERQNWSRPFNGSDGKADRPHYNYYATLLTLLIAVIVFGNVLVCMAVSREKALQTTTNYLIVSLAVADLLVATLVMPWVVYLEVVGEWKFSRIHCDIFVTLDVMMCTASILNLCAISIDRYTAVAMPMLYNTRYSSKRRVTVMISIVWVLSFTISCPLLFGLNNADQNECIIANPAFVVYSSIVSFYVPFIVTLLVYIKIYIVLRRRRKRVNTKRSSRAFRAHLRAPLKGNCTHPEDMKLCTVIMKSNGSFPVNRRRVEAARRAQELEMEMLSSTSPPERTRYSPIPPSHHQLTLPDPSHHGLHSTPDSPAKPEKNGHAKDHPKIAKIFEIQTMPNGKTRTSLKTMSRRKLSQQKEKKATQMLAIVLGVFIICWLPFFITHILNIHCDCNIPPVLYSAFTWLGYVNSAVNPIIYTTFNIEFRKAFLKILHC

Take `CC1(C)CC[C@]2(C(=O)O)CC[C@]3(C)C(=CC[C@@H]4[C@@]5(C)C[C@@H](O)[C@@H](O)C(C)(C)[C@@H]5CC[C@]43C)[C@@H]2C1` [compound 7, 3-epi-Maslinic acid]: the “dopaminergic activity (in words)” value is recorded as “active”. In addition, where the note is “EC50 at the D2 receptor”, the EC50 was 5.1 µM. In the case of `C[C@H]1[C@H](C)CC[C@]2(C(=O)O)CC[C@]3(C)C(=CC[C@@H]4[C@@]5(C)CC[C@H](O)C(C)(C)[C@@H]5CC[C@]43C)[C@H]12` [ursolic acid, reference compound], under setting [1], the EC50 was at least 50 µM. Still for that read-out and setting: under `CC1(C)CC[C@]2(C(=O)O)CC[C@]3(C)C(=CC[C@@H]4[C@@]5(C)C[C@@H](O)[C@H](O)[C@@](C)(CO)[C@@H]5CC[C@]43C)[C@@H]2C1` [arjunolic acid, reference compound] stands at least 50 µM. With `C[C@H]1[C@H](C)CC[C@]2(C(=O)O)CC[C@]3(C)C(=CC[C@@H]4[C@@]5(C)C[C@@H](O)[C@@H](O)C(C)(C)[C@@H]5CC[C@]43C)[C@H]12` [compound 9, 3-epi-Corosolic acid], the “change in activity on the D2 receptor relative to 7” value stood at 2 fold and the “dopaminergic activity (in words)” value is reported as “active”. Also, where the note is “EC50 at the D2 receptor”, the EC50 turned out to be 10.7 µM. Taken in the same sequence, the figures for `CC1(C)CC[C@]2(C(=O)O)CC[C@]3(C)C(=CC[C@@H]4[C@@]5(C)C[C@@H](O)[C@H](O)C(C)(C)[C@@H]5CC[C@]43C)[C@@H]2C1` [compound 8, Maslinic acid] were 4 fold, “active” and 21.3 µM. As for `C[C@@H]1CC[C@]2(C(=O)O)CC[C@]3(C)C(=CC[C@@H]4[C@@]5(C)C[C@@H](O)[C@H](O)C(C)(C)[C@@H]5CC[C@]43C)[C@@H]2[C@]1(C)O` [compound 12, Tormentic acid], under setting [1], the half-maximal effective concentration (EC50) is over 50 µM. Take `CC(=O)O[C@@H]1C[C@@H](C)[C@](O)(CCC2=CC(=O)OC2O)[C@@]2(C)CCCC(C)(C)[C@H]12` (stereo partly shown) [compound 1, Viteagnusin I]: the IC50 came out at 6.6 µM. Further, for the setting “EC50 at the D2 receptor”, the EC50 was 6.61 µM and 6.6 µM. With `CC(=O)O[C@@H]1C[C@@H](C)[C@](O)(CCC2=CC(=O)OC2)[C@@]2(C)CCCC(C)(C)[C@H]12` [compound 3, Vitexilactone], the EC50 under setting [1] was over 50 µM. On to `C=CC(C)(O)CC[C@@]1(C)C2=C([C@H](OC(C)=O)[C@H](OC(C)=O)[C@H]1C)C(C)(C)CCC2` (stereo partly shown) [compound 6, Vitetrifolin D], for which the “dopaminergic activity (in words)” value is given as “either negligible or no dopaminergic activity; also recorded: either weak or no dopaminergic activity”. Under “EC50 at the D2 receptor”, the EC50 was over 50 µM. In the case of `C=CC(C)(O)CC[C@@H]1[C@@]2(C)CCCC(C)(C)[C@@H]2CC[C@]1(C)O` (stereo partly drawn) [compound 4, 8-epi-Sclareol], the “dopaminergic activity (in words)” value is on record as “either negligible or no dopaminergic activity; also recorded: either weak or no dopaminergic activity”. Also, under setting [1], the EC50 turned out to be 24.3 µM.

On to `C=CC(C)(O)CC[C@H]1[C@@]2(C)CCCC(C)(C)[C@@H]2CC[C@@]1(C)O` (stereo partly shown) [compound 5, Viteagnusin C], for which the “dopaminergic activity (in words)” value is reported as “either negligible or no dopaminergic activity; also recorded: either weak or no dopaminergic activity”. Besides, the EC50 under setting [1] was over 50 µM. On to `C[C@H]1[C@H](C)CC[C@]2(C(=O)O)CC[C@]3(C)C(=CC[C@@H]4[C@@]5(C)C[C@@H](O)[C@H](O)C(C)(C)[C@@H]5CC[C@]43C)[C@H]12` [compound 10, Corosolic acid], for which the EC50 (EC50 at the D2 receptor) is over 50 µM. Where the note is “epimers 9 and 10, differing at C3”, the “change in activity on the D2 receptor relative to 9” value is recorded as over 5 fold. For the molecule `CC1(C)CC[C@]2(C(=O)O)CC[C@]3(C)C(=CC[C@@H]4[C@@]5(C)CC[C@H](O)C(C)(C)[C@@H]5CC[C@]43C)[C@@H]2C1` [oleanolic acid, reference compound], the EC50 (EC50 at the D2 receptor) is at least 50 µM. Consider `C[C@@H]1CC[C@]2(C(=O)O)CC[C@]3(C)C(=CC[C@@H]4[C@@]5(C)C[C@@H](O)[C@@H](O)C(C)(C)[C@@H]5CC[C@]43C)[C@@H]2[C@]1(C)O` [compound 11, Euscaphic acid], for which the EC50 under setting [1] was over 50 µM. As to `CC(=O)O[C@@H]1C[C@@H](C)[C@](O)(CCc2ccoc2)[C@@]2(C)CCCC(C)(C)[C@H]12` [compound 2, Rotundifuran], under setting [1], the EC50 is 12.8 µM.
